Data taken from article PMC9500072, “Topical application of an irreversible small molecule inhibitor of lysyl oxidases ameliorates skin scarring and fibrosis” (Nature Communications, 2022).
Where two headings read alike, the source gives them in different places.

Assays:
Type in all cases: biochemical
[1] = target: T1, Rat Recombinant LOXL2 (Rattus norvegicus, UniProt B5DF27); assay: Amine oxidase inhibition profile, rat LOXL2
T1 construct: made in house; host or cells: HEK-293 clones (provided by Dr. Fernando Rodríguez Pascual)
T1 sequence (B5DF27 26-776): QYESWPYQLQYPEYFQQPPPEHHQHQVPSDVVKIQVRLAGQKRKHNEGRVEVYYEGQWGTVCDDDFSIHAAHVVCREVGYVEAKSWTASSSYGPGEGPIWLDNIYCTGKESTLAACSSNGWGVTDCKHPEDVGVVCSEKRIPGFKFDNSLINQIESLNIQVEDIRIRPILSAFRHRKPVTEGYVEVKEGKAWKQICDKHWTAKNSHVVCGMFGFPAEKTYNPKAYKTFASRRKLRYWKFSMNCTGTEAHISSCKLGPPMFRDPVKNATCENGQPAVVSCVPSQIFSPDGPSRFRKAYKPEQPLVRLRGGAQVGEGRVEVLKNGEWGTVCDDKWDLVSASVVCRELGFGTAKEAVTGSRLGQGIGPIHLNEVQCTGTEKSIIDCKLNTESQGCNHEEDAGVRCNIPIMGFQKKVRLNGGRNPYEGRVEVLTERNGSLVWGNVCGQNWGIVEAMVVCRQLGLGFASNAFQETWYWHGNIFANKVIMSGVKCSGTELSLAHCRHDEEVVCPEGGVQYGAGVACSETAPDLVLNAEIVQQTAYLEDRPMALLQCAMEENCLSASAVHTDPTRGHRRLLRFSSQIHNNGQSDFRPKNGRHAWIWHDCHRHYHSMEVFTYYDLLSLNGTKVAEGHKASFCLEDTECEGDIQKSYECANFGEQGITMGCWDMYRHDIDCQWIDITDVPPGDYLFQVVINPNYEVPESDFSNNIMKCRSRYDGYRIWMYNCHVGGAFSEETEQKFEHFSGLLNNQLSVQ

[2] = target: T2, DAO (Homo sapiens, UniProt P19801); assay: Amine oxidase inhibition profile, DAO
T2 sequence (P19801 20-751): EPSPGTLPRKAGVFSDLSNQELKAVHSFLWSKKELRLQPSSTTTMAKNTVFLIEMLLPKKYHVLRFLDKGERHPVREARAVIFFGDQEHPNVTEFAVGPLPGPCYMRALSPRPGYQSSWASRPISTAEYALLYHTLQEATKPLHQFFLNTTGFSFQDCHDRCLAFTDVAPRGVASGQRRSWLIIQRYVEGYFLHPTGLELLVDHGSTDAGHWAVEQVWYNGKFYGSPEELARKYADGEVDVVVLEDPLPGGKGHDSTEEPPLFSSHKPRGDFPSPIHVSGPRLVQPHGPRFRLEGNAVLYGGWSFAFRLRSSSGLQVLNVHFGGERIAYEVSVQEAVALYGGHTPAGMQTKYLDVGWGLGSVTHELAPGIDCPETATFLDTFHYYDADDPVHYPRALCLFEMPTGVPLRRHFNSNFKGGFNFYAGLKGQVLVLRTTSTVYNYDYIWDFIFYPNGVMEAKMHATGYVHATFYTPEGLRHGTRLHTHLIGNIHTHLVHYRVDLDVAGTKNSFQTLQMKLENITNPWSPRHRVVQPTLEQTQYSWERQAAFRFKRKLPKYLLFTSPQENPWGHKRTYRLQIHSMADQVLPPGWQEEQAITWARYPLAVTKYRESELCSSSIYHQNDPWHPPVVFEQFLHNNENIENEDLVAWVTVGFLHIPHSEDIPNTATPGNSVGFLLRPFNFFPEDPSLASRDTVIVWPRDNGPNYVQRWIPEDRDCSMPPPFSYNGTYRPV
Description: (§1) Supplem entary Materi als:
(§2) Supplementary Table S1: Amine oxidase inhibition profile of PXS -4787, PXS-6302 and
(§3) Supplementary Table S2: Perm eability profile of PXS -6302.

[3] = target: T3, Rat Fibroblast LOX (Rattus norvegicus, UniProt P16636); assay: Amine oxidase inhibition profile, rat fibroblast LOX
T3 construct: Fibroblast LOX; endogenous in cells; host or cells: rat fibroblasts
T3 sequence (P16636 163-411): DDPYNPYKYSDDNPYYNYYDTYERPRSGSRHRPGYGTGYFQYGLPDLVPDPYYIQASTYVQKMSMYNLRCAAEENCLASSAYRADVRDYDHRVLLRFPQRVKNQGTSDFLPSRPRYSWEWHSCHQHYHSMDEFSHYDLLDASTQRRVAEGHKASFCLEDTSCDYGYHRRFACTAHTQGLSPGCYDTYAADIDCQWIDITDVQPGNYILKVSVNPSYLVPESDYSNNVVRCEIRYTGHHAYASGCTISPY
Procedure: The measurement of the enzymatic activity of all lysyl oxidase family members was based on the detection of hydrogen peroxide with an Amplex-Red oxidation assay, as previously described; miniaturized in 384 well formats, with the appropriate combination of substrate and assay buffer for each individual enzyme. After a 30 min pre-incubation of the enzyme at 37 °C with the test compound (or with different incubation times for the time-dependency assay), one volume of reaction mixture containing 120 μM Amplex Red (AR) (Life Technologies), 1.5 U/mL horseradish peroxidase (HRP) (Sigma-Aldrich) and the specific substrate was added to each sample. The relative fluorescence units (RFU) were then measured every 2.5 min for 30 min at 37 °C, excitation 565 nm and emission 590, on a BMG Clariostar Microplate Reader. All the substrates were used at concentrations corresponding to their Km towards the corresponding enzyme, or with a range of different concentrations for the substrate competition experiments.
Lysyl oxidases assay buffer contained 1.2 M urea, 50 mM sodium borate buffer, pH 8.2 and 100 µM β-aminoproprionitrile (BAPN, Sigma-Aldrich) was used for low control.
as §1, §2, §3

N#CCCN [BAPN, β-aminoproprionitrile, reference compound]
IC50 [1]: 650 nM | Rat Recombinant LOXL2 pIC50±SD [1]: 6.2 ± 0.2 | Recombinant DAO pIC50 [2]: < 4.5 | IC50 ([2]; read-out: Recombinant DAO IC50): > 30 µM | IC50 [3]: 2.12 µM | Rat Fibroblast LOX pIC50±SD [3]: 5.7 ± 0.1

NC/C=C(\F)CS(=O)(=O)c1ccccc1 [PXS-4787]
IC50 [1]: 590 nM | IC50 ([2]; read-out: Recombinant DAO IC50): > 100 µM | IC50 [3]: 4.57 µM

NC/C=C(\F)C(F)(F)S(=O)(=O)c1ccccc1 [PXS-6302]
IC50 [1]: 430 nM | IC50 [2]: > 30 µM | IC50 [3]: 8.57 µM
